Laboratory results reported in PubChem BioAssay (NCI).
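How tested: cells in 96-well plates exposed to compound for 48 hours at five concentrations. TGI marks complete inhibition of growth.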

How the values were obtained:
Experiment in all cases: DTP human tumour cell line panel, 48 h
HL-60(TB) leukemia = test system: HL-60(TB) leukemia
PC-3 prostate = test system: PC-3 prostate
786-0 renal = test system: 786-0 renal
MCF7 breast = test system: MCF7 breast
BT-549 breast = test system: BT-549 breast
SN12C renal = test system: SN12C renal
OVCAR-3 ovarian = test system: OVCAR-3 ovarian
TK-10 renal = test system: TK-10 renal
CCRF-CEM leukemia = test system: CCRF-CEM leukemia
CAKI-1 renal = test system: CAKI-1 renal
SK-MEL-28 melanoma = test system: SK-MEL-28 melanoma
U251 CNS = test system: U251 CNS
SR leukemia = test system: SR leukemia
HOP-62 NSCLC = test system: HOP-62 NSCLC
SF-295 CNS = test system: SF-295 CNS
ACHN renal = test system: ACHN renal
RXF 393 renal = test system: RXF 393 renal
SW-620 colon = test system: SW-620 colon
K-562 leukemia = test system: K-562 leukemia
SK-OV-3 ovarian = test system: SK-OV-3 ovarian
COLO 205 colon = test system: COLO 205 colon
OVCAR-8 ovarian = test system: OVCAR-8 ovarian
SF-268 CNS = test system: SF-268 CNS
A549 NSCLC = test system: A549 NSCLC
IGROV1 ovarian = test system: IGROV1 ovarian
KM12 colon = test system: KM12 colon
UACC-257 melanoma = test system: UACC-257 melanoma
HCT-15 colon = test system: HCT-15 colon
SK-MEL-5 melanoma = test system: SK-MEL-5 melanoma
SK-MEL-2 melanoma = test system: SK-MEL-2 melanoma
A498 renal = test system: A498 renal
NCI-H23 lung = test system: NCI-H23 lung
SF-539 CNS = test system: SF-539 CNS
M14 melanoma = test system: M14 melanoma
SNB-19 CNS = test system: SNB-19 CNS
RPMI-8226 leukemia = test system: RPMI-8226 leukemia
LOX IMVI melanoma = test system: LOX IMVI melanoma
HCT-116 colon = test system: HCT-116 colon
SNB-75 CNS = test system: SNB-75 CNS
EKVX NSCLC = test system: EKVX NSCLC
MDA-MB-231 breast = test system: MDA-MB-231 breast
OVCAR-4 ovarian = test system: OVCAR-4 ovarian
DU-145 prostate = test system: DU-145 prostate
MDA-MB-435 = test system: MDA-MB-435
NCI-H522 lung = test system: NCI-H522 lung
OVCAR-5 ovarian = test system: OVCAR-5 ovarian
T-47D breast = test system: T-47D breast
MOLT-4 leukemia = test system: MOLT-4 leukemia
NCI/ADR-RES ovarian = test system: NCI/ADR-RES ovarian
HCC-2998 colon = test system: HCC-2998 colon
UACC-62 melanoma = test system: UACC-62 melanoma
MALME-3M melanoma = test system: MALME-3M melanoma
NCI-H226 lung = test system: NCI-H226 lung
NCI-H460 lung = test system: NCI-H460 lung
HOP-92 NSCLC = test system: HOP-92 NSCLC
HS 578T breast = test system: HS 578T breast
HT29 colon = test system: HT29 colon
UO-31 renal = test system: UO-31 renal
MDA-N = test system: MDA-N

## N#Cc1c2c(c(Nc3ccc(F)cc3)n3c1nc1ccccc13)CCCC2
HL-60(TB) leukemia
  TGI: > 100 µM
PC-3 prostate
  TGI: > 100 µM
786-0 renal
  TGI: > 100 µM
MCF7 breast
  TGI: > 100 µM
BT-549 breast
  TGI: > 100 µM
SN12C renal
  TGI: > 100 µM
OVCAR-3 ovarian
  TGI: > 100 µM
TK-10 renal
  TGI: > 100 µM
CCRF-CEM leukemia
  TGI: > 100 µM
CAKI-1 renal
  TGI: > 100 µM
SK-MEL-28 melanoma
  TGI: > 100 µM
U251 CNS
  TGI: > 100 µM
SR leukemia
  TGI: > 100 µM
HOP-62 NSCLC
  TGI: > 100 µM
SF-295 CNS
  TGI: > 100 µM
ACHN renal
  TGI: > 100 µM
RXF 393 renal
  TGI: > 86 µM
SW-620 colon
  TGI: > 100 µM
K-562 leukemia
  TGI: > 100 µM
SK-OV-3 ovarian
  TGI: > 100 µM
COLO 205 colon
  TGI: > 100 µM
OVCAR-8 ovarian
  TGI: > 100 µM
SF-268 CNS
  TGI: > 100 µM
A549 NSCLC
  TGI: > 100 µM
IGROV1 ovarian
  TGI: > 100 µM
KM12 colon
  TGI: > 100 µM
UACC-257 melanoma
  TGI: > 100 µM
HCT-15 colon
  TGI: > 100 µM
SK-MEL-5 melanoma
  TGI: > 100 µM
SK-MEL-2 melanoma
  TGI: > 100 µM
A498 renal
  TGI: > 100 µM
NCI-H23 lung
  TGI: > 100 µM
SF-539 CNS
  TGI: > 100 µM
M14 melanoma
  TGI: > 100 µM
SNB-19 CNS
  TGI: > 85.2 µM
RPMI-8226 leukemia
  TGI: > 100 µM
LOX IMVI melanoma
  TGI: > 100 µM
HCT-116 colon
  TGI: > 100 µM
SNB-75 CNS
  TGI: > 100 µM
EKVX NSCLC
  TGI: > 100 µM
MDA-MB-231 breast
  TGI: > 100 µM
OVCAR-4 ovarian
  TGI: > 100 µM
DU-145 prostate
  TGI: > 100 µM
MDA-MB-435
  TGI: > 100 µM
NCI-H522 lung
  TGI: > 100 µM
OVCAR-5 ovarian
  TGI: > 100 µM
T-47D breast
  TGI: > 100 µM
MOLT-4 leukemia
  TGI: > 100 µM
NCI/ADR-RES ovarian
  TGI: > 100 µM
HCC-2998 colon
  TGI: > 100 µM
UACC-62 melanoma
  TGI: > 100 µM
MALME-3M melanoma
  TGI: > 100 µM
NCI-H226 lung
  TGI: > 100 µM
NCI-H460 lung
  TGI: > 100 µM
HOP-92 NSCLC
  TGI: > 100 µM
HS 578T breast
  TGI: > 100 µM
HT29 colon
  TGI: > 100 µM
UO-31 renal
  TGI: > 100 µM
MDA-N
  TGI: > 100 µM

## Nc1cccc(C2CCCc3c2[nH]c2ccccc32)c1 (configuration not stated)
HL-60(TB) leukemia
  TGI: 43 µM
PC-3 prostate
  TGI: 53.9 µM
786-0 renal
  TGI: 41.5 µM
MCF7 breast
  TGI: 54.7 µM
BT-549 breast
  TGI: 41.9 µM
SN12C renal
  TGI: 32.7 µM
OVCAR-3 ovarian
  TGI: > 100 µM
TK-10 renal
  TGI: > 100 µM
CCRF-CEM leukemia
  TGI: 57 µM
CAKI-1 renal
  TGI: 69.2 µM
SK-MEL-28 melanoma
  TGI: > 100 µM
U251 CNS
  TGI: 28.9 µM
SR leukemia
  TGI: 31.4 µM
HOP-62 NSCLC
  TGI: > 100 µM
SF-295 CNS
  TGI: 64.5 µM
ACHN renal
  TGI: 76.8 µM
RXF 393 renal
  TGI: 39.3 µM
SW-620 colon
  TGI: 42.6 µM
K-562 leukemia
  TGI: 48.7 µM
SK-OV-3 ovarian
  TGI: 70.4 µM
COLO 205 colon
  TGI: 43.6 µM
OVCAR-8 ovarian
  TGI: 34.8 µM
SF-268 CNS
  TGI: 56.4 µM
A549 NSCLC
  TGI: 47.7 µM
IGROV1 ovarian
  TGI: 39.8 µM
KM12 colon
  TGI: 49.8 µM
UACC-257 melanoma
  TGI: 69.1 µM
HCT-15 colon
  TGI: 40.5 µM
SK-MEL-5 melanoma
  TGI: 33.1 µM
SK-MEL-2 melanoma
  TGI: 37.8 µM
A498 renal
  TGI: 28.9 µM
NCI-H23 lung
  TGI: 46.4 µM
SF-539 CNS
  TGI: 40.6 µM
M14 melanoma
  TGI: 62.4 µM
SNB-19 CNS
  TGI: 72.7 µM
RPMI-8226 leukemia
  TGI: 56.6 µM
LOX IMVI melanoma
  TGI: 25.4 µM
HCT-116 colon
  TGI: 34 µM
SNB-75 CNS
  TGI: 36.1 µM
EKVX NSCLC
  TGI: 67.5 µM
MDA-MB-231 breast
  TGI: 37 µM
OVCAR-4 ovarian
  TGI: > 100 µM
DU-145 prostate
  TGI: > 100 µM
MDA-MB-435
  TGI: 41.1 µM
NCI-H522 lung
  TGI: 34.1 µM
OVCAR-5 ovarian
  TGI: 45.8 µM
T-47D breast
  TGI: 54.7 µM
MOLT-4 leukemia
  TGI: 54.1 µM
NCI/ADR-RES ovarian
  TGI: 38.8 µM
HCC-2998 colon
  TGI: 61 µM
UACC-62 melanoma
  TGI: 31.1 µM
MALME-3M melanoma
  TGI: 48.3 µM
NCI-H226 lung
  TGI: 47.9 µM
NCI-H460 lung
  TGI: 73.6 µM
HOP-92 NSCLC
  TGI: 42.7 µM
HS 578T breast
  TGI: 43.7 µM
HT29 colon
  TGI: 33.4 µM
UO-31 renal
  TGI: > 100 µM
MDA-N
  TGI: 37.4 µM

## O=C1C(N2CCOCC2)=C(Cl)C(=O)c2ncccc21
HL-60(TB) leukemia
  TGI: 0.534 µM
PC-3 prostate
  TGI: > 10 µM
786-0 renal
  TGI: 3.24 µM
MCF7 breast
  TGI: 3.59 µM
BT-549 breast
  TGI: > 10 µM
SN12C renal
  TGI: 3.15 µM
OVCAR-3 ovarian
  TGI: 3.39 µM
TK-10 renal
  TGI: 4.71 µM
CCRF-CEM leukemia
  TGI: 2.16 µM
CAKI-1 renal
  TGI: > 10 µM
SK-MEL-28 melanoma
  TGI: 4.67 µM
U251 CNS
  TGI: > 10 µM
SR leukemia
  TGI: 2.2 µM
HOP-62 NSCLC
  TGI: > 10 µM
SF-295 CNS
  TGI: > 10 µM
ACHN renal
  TGI: 3.49 µM
RXF 393 renal
  TGI: 2.91 µM
SW-620 colon
  TGI: 3.72 µM
K-562 leukemia
  TGI: 5.03 µM
SK-OV-3 ovarian
  TGI: > 10 µM
COLO 205 colon
  TGI: 3.91 µM
OVCAR-8 ovarian
  TGI: > 5.73 µM
SF-268 CNS
  TGI: > 7.37 µM
A549 NSCLC
  TGI: > 10 µM
IGROV1 ovarian
  TGI: > 10 µM
KM12 colon
  TGI: > 5.35 µM
UACC-257 melanoma
  TGI: 3.52 µM
HCT-15 colon
  TGI: 4.11 µM
SK-MEL-5 melanoma
  TGI: 3.26 µM
SK-MEL-2 melanoma
  TGI: 3.77 µM
A498 renal
  TGI: > 10 µM
NCI-H23 lung
  TGI: 3.55 µM
SF-539 CNS
  TGI: > 10 µM
M14 melanoma
  TGI: 4.97 µM
SNB-19 CNS
  TGI: > 10 µM
RPMI-8226 leukemia
  TGI: 4.34 µM
LOX IMVI melanoma
  TGI: 4.92 µM
HCT-116 colon
  TGI: 3.1 µM
SNB-75 CNS
  TGI: > 10 µM
EKVX NSCLC
  TGI: > 10 µM
MDA-MB-231 breast
  TGI: 5.24 µM
OVCAR-4 ovarian
  TGI: 2.89 µM
DU-145 prostate
  TGI: > 10 µM
MDA-MB-435
  TGI: 3.22 µM
NCI-H522 lung
  TGI: 2.85 µM
OVCAR-5 ovarian
  TGI: > 10 µM
T-47D breast
  TGI: 3.92 µM
MOLT-4 leukemia
  TGI: 3.19 µM
NCI/ADR-RES ovarian
  TGI: > 10 µM
HCC-2998 colon
  TGI: > 9.5 µM
UACC-62 melanoma
  TGI: 5.51 µM
MALME-3M melanoma
  TGI: 3.45 µM
NCI-H226 lung
  TGI: > 10 µM
NCI-H460 lung
  TGI: > 10 µM
HOP-92 NSCLC
  TGI: 2.84 µM
HS 578T breast
  TGI: > 10 µM
HT29 colon
  TGI: > 10 µM
UO-31 renal
  TGI: > 5.86 µM
MDA-N
  TGI: 3.48 µM
